Measured values published in US9790169B2, “IDO inhibitors” (BRISTOL-MYERS SQUIBB COMPANY, priority 2015, dated 2017).

What follows are molecules tested against human IDO1 (Homo sapiens, UniProt P14902) (assay: Assessment of human IDO-1 inhibitory activity in Hela cells (Interferon-gamma stimulated HeLa cells, Ehrlich reagent, absorbance 490 nm)). Conditions: Hela Human IDO-1 cellular assay.
Assay type: cell-based
Parameters: endogenous in cells; host or cells: HeLa cells stimulated with interferon-gamma
Outline: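 HeLa cells pre-incubated with compound 1 h at 37 °C, then stimulated with human IFN-γ (10 ng/ml final) or murine IFN-γ (5 ng/ml final) for 18 h. Kynurenine read with Ehrlich reagent at 490 nm after TCA (3%) and 50 °C treatment; IC50 normalized to unstimulated (100%) and IFN-γ-only (0%) wells.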

Chain of human IDO1 (P14902 whole entry): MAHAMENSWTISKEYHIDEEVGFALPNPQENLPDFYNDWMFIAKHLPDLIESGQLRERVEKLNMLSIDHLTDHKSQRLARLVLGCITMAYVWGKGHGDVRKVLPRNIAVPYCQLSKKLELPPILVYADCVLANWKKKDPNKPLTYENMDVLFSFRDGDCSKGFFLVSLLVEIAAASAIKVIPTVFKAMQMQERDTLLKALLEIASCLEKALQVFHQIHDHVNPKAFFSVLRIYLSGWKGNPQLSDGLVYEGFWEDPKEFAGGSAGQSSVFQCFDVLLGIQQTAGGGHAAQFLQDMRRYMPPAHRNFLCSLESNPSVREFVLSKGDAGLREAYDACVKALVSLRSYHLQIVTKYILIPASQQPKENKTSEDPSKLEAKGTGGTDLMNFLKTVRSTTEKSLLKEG

IC50	Molecule
> 50 nM	CCNC(=O)NC[C@@H](CC)c1ccc(N(CC)C2CCOCC2)c(Nc2cnc(OCC)nc2)c1 [Example 1366, (S)-1-(2-(3-((2-Ethoxypyrimidin-5-yl)amino)-4-(ethyl(tetrahydro-2H-pyran-4-yl)amino)phenyl)butyl)-3-ethylurea]
< 5 nM	(R)-3-(3-((4-chlorophenyl)amino)-4-((1,1-dioxidotetrahydro-2H- thiopyran-4-yl)(ethyl)amino) phenyl)-4-isopropoxybutanoic acid [Example 330]
> 50 nM	(R)-3-(4-((1,1-dioxidotetrahydro-2H-thiopyran-4-yl)(ethyl)amino)- 3-((2-ethoxypyrimidin-5- yl)amino)phenyl)-4- isopropoxybutanoic acid [Example 333]
> 50 nM	(R)-3-(4-((1,1-dioxidotetrahydro-2H-thiopyran-4-yl)(ethyl)amino)- 3-((2-methoxypyrimidin-5- yl)amino)phenyl)-4- isopropoxybutanoic acid [Example 332]
